This is an account of results in patent publication US20240351965A1, “Synthesis and Evaluation of Novel (4-Hydroxyphenyl) Substituted Carbocycles as Potent and Selective Estrogen Receptor Beta Agonists” (Marquette University, priority 2021, published 2024).

Where two headings read alike, the source gives them in different places.

The target in one series is T1, CYP3A4 (Homo sapiens, UniProt P08684).
T1 construct: purchased Promega (P450-Glo Screening Systems)
In words: Cytochrome P450 inhibition (P450-Glo), CYP3A4. In kind it is in vitro ADME. How it is done: (§1) A screen of Cytochrome p450 inhibition was performed using the Promega P450-Glo™ Screening Systems. The Screening Systems' manual instructions were followed for CYP2C9, CYP2D6, or CYP3A4 enzymes with Luciferin-H, Luciferin-ME EGE or Luciferin-PPXE as substrates, respectively. The components of the kits, i.e., membrane enzymes, control enzymes, substrates and potassium phosphate buffer and or TRIS buffer were combined according to the System-manual's recommended final concentrations. Reactions were pre-incubated in white 96-well flat-bottom plates at 37° C. for 10 min before starting reactions with 2×NADPH regeneration buffer. The 96-well plates were incubated according to the recommended times in the linear range for each enzyme/substrate reaction. The reactions were stopped using 2× Luciferin Detection Reagent. After 20 minutes, the luciferase product was detected using a SpectraMax M5 Molecular Devices plate reader on the end-point luminescence setting. Positive control inhibitors for CYP2C9, CYP2D6, and CYP3A4 enzymes were assayed at a final concentration of 10 μM sulfaphenazole, 1 μM quinidine and 5 μM ketoconazole, respectively. Serial dilutions of 5a/b and (±)-11 were assayed at final concentrations of […], 7.812, 3.906, 1.953, 0.977, 0.488 μM. Inhibition data were analyzed using GraphPad Prism® 6 for Windows, ver. 6.07 (Jun. 12, 2015) software. Raw data were normalized against the control enzyme and untreated CYP enzyme means and then analyzed through non-linear regression using log (inhibitor) vs normalized dose-response curves to assess IC50s. Standard deviations were calculated from Best-fit values. Data were normalized to vehicle and positive controls (sulfaphenazole for CYP2C9, quinidine for CYP2D6, and ketoconazole for CYP3A4) and nonlinear square fits of the data were conducted using Prism 6 (GraphPad).

The next series concerns the target T2, CYP2C9 (Homo sapiens, UniProt P11712).
T2 construct: purchased Promega (P450-Glo Screening Systems)
The experiment in a line: Cytochrome P450 inhibition (P450-Glo), CYP2C9. In kind it is in vitro ADME. The following applies: for IC50: tested up to 62.5 μM. The procedure: as §1

The next series has as its target T3, CYP2D6 (Homo sapiens, UniProt P10635).
T3 construct: purchased Promega (P450-Glo Screening Systems)
In words: Cytochrome P450 inhibition (P450-Glo), CYP2D6. In kind it is in vitro ADME. How it is done: as §1

In series [1] the target is T4, ERβ (Homo sapiens, UniProt Q92731). In words: TR-FRET coactivator binding (recruitment) assay. In kind it is biochemical. For orientation: TR-FRET usually uses a lanthanide donor and a delayed reading to cut background.
Target sequence in this assay (Q92731 264-498 limits assumed): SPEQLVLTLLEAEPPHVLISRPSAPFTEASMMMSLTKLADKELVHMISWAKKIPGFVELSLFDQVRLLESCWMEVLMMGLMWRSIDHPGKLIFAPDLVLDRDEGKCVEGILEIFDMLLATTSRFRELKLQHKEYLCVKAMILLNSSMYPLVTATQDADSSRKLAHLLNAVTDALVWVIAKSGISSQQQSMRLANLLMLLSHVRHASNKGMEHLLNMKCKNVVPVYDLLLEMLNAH
The target in series [2] is T4, ERβ. In words: TR-FRET ligand binding displacement assay (LanthaScreen).
Target sequence in this assay (Q92731 264-498 limits assumed): as above
Series [3] concerns the target T4, ERβ. The following applies: cited from earlier work.
Target sequence in this assay (Q92731 whole entry): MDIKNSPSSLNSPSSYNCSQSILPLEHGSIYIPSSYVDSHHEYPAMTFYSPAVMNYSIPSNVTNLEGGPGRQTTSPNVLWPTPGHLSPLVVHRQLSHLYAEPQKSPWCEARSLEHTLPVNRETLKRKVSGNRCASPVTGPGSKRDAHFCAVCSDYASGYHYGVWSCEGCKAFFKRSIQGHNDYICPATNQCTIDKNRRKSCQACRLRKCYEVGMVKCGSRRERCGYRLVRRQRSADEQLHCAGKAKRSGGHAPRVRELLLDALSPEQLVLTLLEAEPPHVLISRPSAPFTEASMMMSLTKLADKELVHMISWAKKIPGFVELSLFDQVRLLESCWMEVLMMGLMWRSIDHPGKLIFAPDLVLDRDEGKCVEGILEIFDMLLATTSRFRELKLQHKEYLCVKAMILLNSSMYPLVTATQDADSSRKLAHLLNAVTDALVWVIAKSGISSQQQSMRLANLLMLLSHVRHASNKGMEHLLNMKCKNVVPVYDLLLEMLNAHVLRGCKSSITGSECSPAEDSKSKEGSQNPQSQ
[4] abbreviates: human, probe Luciferin-PPXE, read-out: CYP3A4 inhibition: not inhibited at concentrations up to (abstract).
The mark [5] stands for this setting: read-out: CYP3A4 inhibition: no inhibition up to.
The mark [6] stands for this setting: human, probe Luciferin-ME EGE, read-out: CYP2D6 inhibition: not inhibited at concentrations up to (abstract).
Where [7] appears, read: read-out: CYP2D6 inhibition: no inhibition up to.

T3 sequence (P10635 whole entry): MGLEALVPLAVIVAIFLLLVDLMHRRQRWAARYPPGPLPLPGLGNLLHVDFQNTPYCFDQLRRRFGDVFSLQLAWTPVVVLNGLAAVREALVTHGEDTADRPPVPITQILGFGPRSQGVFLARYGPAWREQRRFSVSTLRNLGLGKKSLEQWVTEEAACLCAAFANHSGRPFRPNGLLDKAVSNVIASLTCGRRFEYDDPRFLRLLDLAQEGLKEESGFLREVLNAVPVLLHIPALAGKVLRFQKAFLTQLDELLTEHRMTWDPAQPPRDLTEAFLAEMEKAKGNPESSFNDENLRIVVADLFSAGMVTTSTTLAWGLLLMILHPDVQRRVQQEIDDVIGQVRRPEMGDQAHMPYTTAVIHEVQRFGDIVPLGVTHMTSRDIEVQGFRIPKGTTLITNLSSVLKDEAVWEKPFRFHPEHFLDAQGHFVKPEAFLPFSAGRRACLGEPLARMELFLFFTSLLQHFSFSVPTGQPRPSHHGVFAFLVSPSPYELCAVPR
T2 sequence (P11712 whole entry): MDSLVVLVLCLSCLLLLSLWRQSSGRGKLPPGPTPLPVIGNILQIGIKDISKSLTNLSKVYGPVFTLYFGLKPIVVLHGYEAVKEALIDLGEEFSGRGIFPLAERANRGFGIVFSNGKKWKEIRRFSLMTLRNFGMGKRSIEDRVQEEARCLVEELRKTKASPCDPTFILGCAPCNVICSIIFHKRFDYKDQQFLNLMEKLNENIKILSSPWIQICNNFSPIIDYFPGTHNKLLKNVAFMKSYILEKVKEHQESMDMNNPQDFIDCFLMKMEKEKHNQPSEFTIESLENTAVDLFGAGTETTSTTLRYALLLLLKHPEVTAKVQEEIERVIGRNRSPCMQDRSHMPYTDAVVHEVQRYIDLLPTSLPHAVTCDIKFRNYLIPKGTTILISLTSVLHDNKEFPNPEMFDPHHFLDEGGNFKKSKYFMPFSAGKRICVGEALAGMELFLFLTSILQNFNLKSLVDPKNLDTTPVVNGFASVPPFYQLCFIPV
T1 sequence (P08684 whole entry): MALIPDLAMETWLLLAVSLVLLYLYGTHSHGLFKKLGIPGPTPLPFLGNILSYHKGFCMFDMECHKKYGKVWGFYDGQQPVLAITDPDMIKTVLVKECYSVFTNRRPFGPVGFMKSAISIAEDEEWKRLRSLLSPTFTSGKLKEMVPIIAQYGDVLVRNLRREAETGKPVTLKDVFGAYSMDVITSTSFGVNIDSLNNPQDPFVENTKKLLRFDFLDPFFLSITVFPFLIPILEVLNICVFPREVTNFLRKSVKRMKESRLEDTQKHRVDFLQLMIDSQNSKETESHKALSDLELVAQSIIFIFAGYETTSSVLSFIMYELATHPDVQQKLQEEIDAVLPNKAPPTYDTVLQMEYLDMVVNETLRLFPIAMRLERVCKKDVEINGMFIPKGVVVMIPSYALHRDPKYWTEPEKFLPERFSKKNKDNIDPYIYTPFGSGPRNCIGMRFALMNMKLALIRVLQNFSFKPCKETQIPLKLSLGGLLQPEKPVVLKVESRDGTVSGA

`Oc1ccc(C2CCC3(CC2)CC(O)C3)cc1` (racemic) [(±)-11, 7-(4-hydroxyphenyl)spiro[3.5]nonan-2-ol]: the “CYP3A4 binding in enzyme kinetic inhibition assay” value on CYP3A4 was “does not bind to any of these CYP450 enzymes with significant activity”. Also, the IC50 on CYP3A4 (setting [4]), at CYP3A4 (setting [5]), at CYP2C9, at CYP2D6 (setting [6]) and on CYP2D6 (setting [7]) was > 62.5 µM each time. The “CYP2C9 binding in enzyme kinetic inhibition assay” value at CYP2C9 is “does not bind to any of these CYP450 enzymes with significant activity”. Besides, the “CYP2D6 binding in enzyme kinetic inhibition assay” value on CYP2D6 is reported as “does not bind to any of these CYP450 enzymes with significant activity”.

In the case of `O=C1CC2(CCC(c3ccc(O)cc3)CC2)C1` [compound 10, 7-(4-Hydroxyphenyl)spiro[3.5]nonan-2-one], the figures for the IC50 at ERβ [1] and at ERβ [2] were 1.64 ± 0.301 µM and 2.22 ± 2.66 µM, respectively.

Usually EC50 stands for the concentration needed to bring the measured effect to its halfway point. `OCC1CCCC(c2ccc(O)cc2)CC1` (stereo not shown) [ISP163]: on ERβ [3], the “ERβ selectivity (literature)” value is given as 318 fold. In addition, the concentration giving a half-maximal response (EC50) at ERβ [3] (read-out: EC50 (literature, ERβ agonist)) is 0.033 ± 0.005 µM.

As to `OCC12CC3CC(C1)C(c1ccc(O)cc1)C(C3)C2` (stereo not shown) [5a/b, 4-(4-Hydroxyphenyl)tricyclo[3.3.1.1^3,7]decane-1-methanol], the “CYP3A4 binding in enzyme kinetic inhibition assay” value at CYP3A4 is listed as “weak binding only to CYP2C9”. The IC50 is > 62.5 µM at CYP3A4 (setting [4]); > 62.5 µM at CYP3A4 (setting [5]); 10 ± 0.5 µM at CYP2C9; > 62.5 µM at CYP2D6 (setting [6]); > 62.5 µM on CYP2D6 (setting [7]). Moreover, the “CYP2D6 binding in enzyme kinetic inhibition assay” value on CYP2D6 is “weak binding only to CYP2C9”.
